# From US20240391931A1 (Bristol-Myers Squibb Company, priority 2021, published 2024)
# Assays:
# HER2YVMA = HER2YVMA (Homo sapiens, UniProt P04626, INS775YVMA); assay: HER2 signaling (pHER2) in Hek293-HER2YVMA cells; type: cell-based; parameters: expressed in transfected cells; host or cells: HEK293 (pool), Ba/F3 (clones), BEAS2B (clones); lentiviral vector pCDH-CMV-MCS-EF1-Neo; details: 1.5 hr compound, 1% FBS, read-out: HEKYVMA pHER2 EC50
# Method in brief: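 Lentivirally transduced HER2YVMA lines (HEK293 pool; BEAS2B clone) treated 1.5 h at 37 °C in 1% FBS medium with compound at 0.0005–1.1 μM. Lysates read by MSD immunoassay for pHER2 (Tyr1248) normalized to total HER2, as % DMSO control; EC50 from variable-slope sigmoidal fit.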
# EGFR = EGFR (Homo sapiens, UniProt P00533); assay: EGFR signaling (pEGFR Tyr1068/total EGFR MSD) in A431 cells; type: cell-based; parameters: endogenous in cells; host or cells: A431, N87; details: for EC50: A431 cells, read-out: A431 pEGFR EC50; for Selectivity A431 EC50/BT474 EC50: ratio A431 pEGFR EC50 to BT474 pHER2 EC50; for Selectivity A431 EC50/HEKYVMA EC50: ratio A431 pEGFR EC50 to HEK YVMA pHER2 EC50
# Method in brief: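 Serum-starved A431 cells were pretreated 1.5 h in 1% FBS with compound (0.005–10 μM, 0.1% DMSO), then stimulated with 100 ng/mL human EGF for 10 min. Lysate pEGFR Tyr1068 was measured by MSD and normalized to total EGFR as % DMSO control; EC50 from variable-slope sigmoidal fit.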
# EGFR, sequence (P00533 25-1210): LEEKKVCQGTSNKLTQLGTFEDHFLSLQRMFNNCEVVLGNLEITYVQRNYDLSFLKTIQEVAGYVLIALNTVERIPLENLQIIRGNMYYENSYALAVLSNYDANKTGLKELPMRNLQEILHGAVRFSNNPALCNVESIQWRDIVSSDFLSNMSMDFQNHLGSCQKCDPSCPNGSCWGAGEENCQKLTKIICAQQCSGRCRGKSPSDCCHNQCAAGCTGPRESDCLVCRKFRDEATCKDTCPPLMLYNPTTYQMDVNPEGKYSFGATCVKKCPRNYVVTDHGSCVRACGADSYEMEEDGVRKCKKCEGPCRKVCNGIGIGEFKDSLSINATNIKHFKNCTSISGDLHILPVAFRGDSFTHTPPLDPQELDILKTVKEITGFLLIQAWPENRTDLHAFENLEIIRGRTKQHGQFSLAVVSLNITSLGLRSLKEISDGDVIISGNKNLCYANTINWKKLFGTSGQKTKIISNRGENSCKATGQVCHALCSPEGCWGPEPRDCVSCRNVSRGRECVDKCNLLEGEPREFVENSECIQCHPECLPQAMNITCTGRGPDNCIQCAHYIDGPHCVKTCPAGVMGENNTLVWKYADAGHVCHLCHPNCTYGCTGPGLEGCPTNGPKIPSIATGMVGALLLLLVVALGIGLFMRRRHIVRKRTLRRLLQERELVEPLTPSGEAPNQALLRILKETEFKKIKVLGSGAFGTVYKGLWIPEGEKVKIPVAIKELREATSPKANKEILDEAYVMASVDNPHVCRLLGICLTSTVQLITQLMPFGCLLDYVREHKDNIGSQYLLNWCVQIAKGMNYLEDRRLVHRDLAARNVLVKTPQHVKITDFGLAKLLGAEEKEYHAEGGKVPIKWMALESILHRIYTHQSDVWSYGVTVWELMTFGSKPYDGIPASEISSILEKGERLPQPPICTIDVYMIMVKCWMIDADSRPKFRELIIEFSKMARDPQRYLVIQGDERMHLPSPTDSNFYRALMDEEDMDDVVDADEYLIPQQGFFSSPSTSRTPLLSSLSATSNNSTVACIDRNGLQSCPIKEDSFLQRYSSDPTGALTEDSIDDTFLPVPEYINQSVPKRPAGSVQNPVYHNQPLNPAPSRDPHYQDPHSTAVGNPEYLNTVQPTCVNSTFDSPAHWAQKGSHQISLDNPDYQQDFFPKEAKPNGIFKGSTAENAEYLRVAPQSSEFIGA
# HER2YVMA, sequence (P04626 with tags, fused parts or gaps INS775YVMA): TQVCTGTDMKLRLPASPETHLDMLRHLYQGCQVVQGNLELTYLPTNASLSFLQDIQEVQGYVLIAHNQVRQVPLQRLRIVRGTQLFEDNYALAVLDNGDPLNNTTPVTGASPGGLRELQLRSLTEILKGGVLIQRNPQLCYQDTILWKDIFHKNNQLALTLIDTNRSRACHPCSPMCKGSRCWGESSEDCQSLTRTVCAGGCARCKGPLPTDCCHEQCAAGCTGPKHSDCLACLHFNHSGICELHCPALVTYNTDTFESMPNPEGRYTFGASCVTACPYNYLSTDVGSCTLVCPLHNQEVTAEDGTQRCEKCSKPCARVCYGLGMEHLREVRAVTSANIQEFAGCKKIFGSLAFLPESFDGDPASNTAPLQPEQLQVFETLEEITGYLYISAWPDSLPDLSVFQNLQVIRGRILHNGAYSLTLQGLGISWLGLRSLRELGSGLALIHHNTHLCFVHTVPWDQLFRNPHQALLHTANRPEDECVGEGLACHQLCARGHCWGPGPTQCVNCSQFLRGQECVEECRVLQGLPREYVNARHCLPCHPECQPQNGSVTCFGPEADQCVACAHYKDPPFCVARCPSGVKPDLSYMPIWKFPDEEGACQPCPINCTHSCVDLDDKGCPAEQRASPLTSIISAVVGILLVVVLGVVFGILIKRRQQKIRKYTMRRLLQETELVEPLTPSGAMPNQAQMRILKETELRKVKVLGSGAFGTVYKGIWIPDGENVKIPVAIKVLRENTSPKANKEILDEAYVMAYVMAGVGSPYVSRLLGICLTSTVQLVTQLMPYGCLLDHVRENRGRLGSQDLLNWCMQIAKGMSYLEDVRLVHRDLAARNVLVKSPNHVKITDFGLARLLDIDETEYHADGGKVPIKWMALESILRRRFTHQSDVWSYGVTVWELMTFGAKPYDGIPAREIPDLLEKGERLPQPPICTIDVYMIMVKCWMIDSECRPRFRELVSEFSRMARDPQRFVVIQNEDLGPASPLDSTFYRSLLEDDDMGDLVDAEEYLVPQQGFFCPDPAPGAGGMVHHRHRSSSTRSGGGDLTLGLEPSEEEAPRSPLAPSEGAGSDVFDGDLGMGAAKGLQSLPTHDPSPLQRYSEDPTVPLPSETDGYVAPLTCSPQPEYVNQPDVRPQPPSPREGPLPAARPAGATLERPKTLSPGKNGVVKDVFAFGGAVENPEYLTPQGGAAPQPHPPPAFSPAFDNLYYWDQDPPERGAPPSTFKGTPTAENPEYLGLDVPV
EC50 (HER2YVMA),EC50 (EGFR),Selectivity A431 EC50/BT474 EC50 (EGFR),Selectivity A431 EC50/HEKYVMA EC50 (EGFR),SMILES
< 100 nM,< 100 nM,D (D: ≥ 5 and < 10),E (E: >1 and < 5),COc1ccc(Oc2ccc(Nc3ncnc4sc5c(c34)CCN(C(=O)/C=C/CN(C)C(C)(C)C)C5)cc2C)cn1 [Compound 163]
< 100 nM,100 to 1000 nM,C (C: ≥ 10 and < 20),D (D: ≥ 5 and < 10),COc1ccc(Oc2ccc(Nc3ncnc4sc5c(c34)CCN(C(=O)/C=C/CN3CCOCC3)C5)cc2C)cn1 [Compound 164]
100 to 350 nM,100 to 1000 nM,B (B: ≥ 20 and < 100),E (E: >1 and < 5),"Cc1ccc(Oc2ccc(Nc3ncnc4sc5c(c34)CCN(C(=O)/C=C/CN(C)C)CC5)cc2Cl)cn1 [Compound 167, (E)-1-(4-((3-Chloro-4-((6-methylpyridin-3-yl)oxy)phenyl)amino)-8,9-dihydro-5H-pyrimido[5′,4′:4,5]thieno[2,3-d]azepin-7(6H)-yl)-4-(dimethylamino)but-2-en-1-one]"
100 to 350 nM,1000 to 10000 nM,A (A: ≥100),B (B: ≥ 20 and < 100),Cc1cc(Nc2ncnc3sc4c(c23)CCN(C(=O)/C=C/CN(C)C)CC4)ccc1Oc1ccn2ncnc2c1 [Compound 168]
< 100 nM,< 100 nM,A (A: ≥100),E (E: >1 and < 5),"Cc1ccc(Oc2ccc(Nc3ncnc4sc5c(c34)C(C)CN(C(=O)/C=C/CN(C)C)C5)cc2Cl)cn1 (stereo not shown) [Compound 171, (E)-1-(4-((3-Chloro-4-((6-methylpyridin-3-yl)oxy)phenyl)amino)-5-methyl-5,6-dihydropyrido[4′,3′:4,5]thieno[2,3-d]pyrimidin-7(8H)-yl)-4-(dimethylamino)but-2-en-1-one]"
100 to 350 nM,1000 to 10000 nM,B (B: ≥ 20 and < 100),C (C: ≥ 10 and < 20),"Cc1cc(Nc2ncnc3sc4c(c23)CCN(C(=O)/C=C/CN(C)C)CC4)ccc1Oc1ccn2ccnc2c1 [Compound 172, (E)-4-(Dimethylamino)-1-(4-((4-(imidazo[1,2-a]pyridin-7-yloxy)-3-methylphenyl)amino)-8,9-dihydro-5H-pyrimido[5′,4′:4,5]thieno[2,3-d]azepin-7(6H)-yl)but-2-en-1-one]"
100 to 350 nM,1000 to 10000 nM,B (B: ≥ 20 and < 100),C (C: ≥ 10 and < 20),"COc1ccc(Oc2ccc(Nc3ncnc4sc5c(c34)CCN(C(=O)/C=C/CN(C)C)CC5)cc2C)cn1 [Compound 173, (E)-4-(Dimethylamino)-1-(4-((4-((6-methoxypyridin-3-yl)oxy)-3-methylphenyl)amino)-8,9-dihydro-5H-pyrimido[5′,4′:4,5]thieno[2,3-d]azepin-7(6H)-yl)but-2-en-1-one]"
< 100 nM,100 to 1000 nM,B (B: ≥ 20 and < 100),C (C: ≥ 10 and < 20),"Cc1ccc(Oc2ccc(Nc3ncnc4sc5c(c34)C(C)CN(C(=O)/C=C/CN3CCOCC3)C5)cc2C)cn1 (stereo not shown) [Compound 174, (E)-1-(5-Methyl-4-((3-methyl-4-((6-methylpyridin-3-yl)oxy)phenyl)amino)-5,6-dihydropyrido[4′,3′:4,5]thieno[2,3-d]pyrimidin-7(8H)-yl)-4-morpholinobut-2-en-1-one]"

SMILES,EC50 (HER2YVMA),EC50 (EGFR),Selectivity A431 EC50/BT474 EC50 (EGFR),Selectivity A431 EC50/HEKYVMA EC50 (EGFR)
"Cc1cc(Nc2ncnc3sc4c(c23)CCN(C(=O)/C=C/CN(C)C)C4)ccc1Oc1ccc(N(C)C)nc1 [Compound 158, (E)-4-(dimethylamino)-1-(4-((4-((6-(dimethylamino)pyridin-3-yl)oxy)-3-methylphenyl)amino)-5,8-dihydropyrido[4′,3′:4,5]thieno[2,3-d]pyrimidin-7(6H)-yl)but-2-en-1-one]",< 100 nM,100 to 1000 nM,B (B: ≥ 20 and < 100),B (B: ≥ 20 and < 100)
Cc1ccc(Oc2ccc(Nc3ncnc4sc5c(c34)C(C)CN(C(=O)/C=C/CN(C)C(C)(C)C)C5)cc2C)cn1 (stereo not shown) [Compound 175],< 100 nM,< 100 nM,C (C: ≥ 10 and < 20),E (E: >1 and < 5)
